In brackets after ≈: the same amount, converted by molar mass. Where two headings read alike, the source gives them in different places.
Tests used:
[1] = tested on: Plasmodium falciparum NF54 (chloroquine-sensitive); assay: Antiplasmodial [3H] hypoxanthine incorporation assay, NF54 strain; assay type: cell-based; details: for IC50: Plasmodium falciparum
Description: (§1) The antiplasmodial testing of the extracts was run in duplicate. The method was based upon the [^3H] hypoxanthine incorporation assay, as described by Desjardins and modified by Ridley and the data fitted to generate IC50 and IC90 values, corresponding to the concentrations required to cause 50 and 90% inhibition of parasite growth respectively. The Plasmodium falciparum clones used for the testing were W-2 and D-6. W-2 strain otherwise known as the Indochina clone is known to be resistant to chloroquine, pyrimethamine, sulfadoxine and quinine. Meanwhile the D-6 otherwise known as the Sierra Leonian clone is resistant to mefloquine but sensitive to the above named drugs. Chloroquine, quinine and artesunate were used as reference drugs. […] Compounds 1 and 2 (due to their quantity) were subsequently tested against T. cruzi, L. donovani and T. b. rhodensiense, parasites responsible for Chagas disease, leishmaniasis and human African trypanosomiasis (sleeping sickness) respectively with Benznidazole, Miltefosine and Melarsoprol included as reference drugs. Cytotoxicity was evaluated using HT-29 (human […] carcinoma) with podophyllotoxin as reference drug.
(§2) The crude S. striatinux extracts (MeOH and CH2Cl2) were tested at the Walter Reed Army Institute of Research (WRAIR), Washington. DC. […] The method used for antiplasmodial testing, was based upon [^3H] hypoxanthine incorporation assay, previously described in the literature. Both chloroquine-sensitive (NF54, D6) and chloroquine-resistant (K1, W2) strains and chloroquine, quinine and artesunate used as positive references. L. donovani MHOM-ET-67/L82 (obtained from the spleen of an infected hamster and grown in axenic cultures) was used for the antileishmanial testing while T. brucei squib 427 strain (suramin-sensitive) was used for the antitrypanosomal testing. Cytotoxicity test was done using HT-29 (human […] carcinoma), with podophyllotoxin included as reference drug at a concentration of 0.1 μg/mL.

[2] = tested on: Plasmodium falciparum D-6 (chloroquine-sensitive, Sierra Leonian clone); assay: Antiplasmodial [3H] hypoxanthine incorporation assay, D6 clone; assay type: cell-based
Description: as §1, §2

[3] = tested on: Plasmodium falciparum W-2 (chloroquine-resistant, Indochina clone); assay: Antiplasmodial [3H] hypoxanthine incorporation assay, W2 clone; assay type: cell-based
Description: as §1, §2

T. b. rhodesiense = assay: Antitrypanosomal testing, T. b. rhodesiense; assay type: cell-based, Trypanosoma brucei rhodesiense; details: calculated versus cytotoxicity (HT-29)
Description: as §1
(§3) The crude S. striatinux extracts (MeOH and CH2Cl2) were tested at the Walter Reed Army Institute of Research (WRAIR), Washington. DC. […]

[4] = tested on: Plasmodium falciparum K1 (chloroquine-resistant); assay: Antiplasmodial [3H] hypoxanthine incorporation assay, K1 strain; assay type: cell-based; details: P. falciparum K1, results from STI
Description: as §1, §3

T. cruzi = assay: Antitrypanosomal testing, T. cruzi; assay type: cell-based, Trypanosoma cruzi; details: calculated versus cytotoxicity (HT-29)
Description: as §1, §3

[5] = Metabolic stability in human liver microsomes; assay type: in vitro ADME; details: for Metabolites detected: LCMS; for microsomal CLint at 2 µM: NADPH dependent degradation, 37 °C, read-out: In vitro CL int; for Microsome predicted E H (hepatic extraction ratio): Q = 20.7 mL/min/kg; for CLint scaled at 2 µM: scaled from in vitro CL int, read-out: Microsome predicted CL int
Description: The objective here was to determine the in vitro metabolic stability of these two compounds using human liver microsomes as a preliminary indication of their likely in vivo metabolic clearance and potential metabolic products. The method used was as outlined in Obach. […] The compounds maybe susceptible to […] in more complicated test systems based on their structure, since both compounds 1 and 2 contain an α, β-unsaturated ketone moiety with the potential to act as a Michael acceptor (by forming adducts with endogenous nucleophiles such as glutathione). However, this was not investigated and would be the subject of future studies in which we hope to use a simple chemical system (i.e., in aqueous buffer containing free glutathione) or examining the extent of degradation in whole blood.
Test compounds (2 µM) were incubated at 37 °C with human liver microsomes [purchased from BD Gentest (Woburn, MA) using microsome lot # 41207]. The reaction was initiated by the addition of an NADPH-regenerating system (i.e. NADPH is the cofactor required for CYP450-mediated metabolism) and quenched at various time points over the incubation period by the addition of acetonitrile. Additional samples co-activated by NADPH and UDPGA (the co-factor for glucoronidation), were included in the incubation for the qualitative assessment of the potential for glucoronide formation. The relative loss of parent compound and formation of metabolic products was determined using a single quadrupole LCMS instrument (Waters, Manchester, UK).
Test compound concentration versus time data was fitted to an exponential decay function to determine the first-order rate constant for substrate depletion (k). Each substrate depletion rate constant was then used to calculate: (1) an initial in vitro clearance value (in vitro, CL int,in vitro); (2) an intrinsic clearance value (CL int); and (3) a hepatic extraction ratio (E H)1 CLint,invitro=k/microsomalproteincontent(0.4mgprotein/mL) 2 CLint=CLint,invitro×livermass(g)/bodyweight(kg)×45mgmicrosomalprotein/glivermass 3 EH=CLint/Q+CLint For Eqs.

[6] = Kinetic solubility, turbidimetric method (nephelometry); assay type: physicochemical; details: kinetic from dmso stock, 1% DMSO
Description: The solubility of the compounds was estimated via the turbidimetric method using standard test buffers (pH 2.0 and pH 6.5) as previously described. […] There was no significant change in ionization in the molecule across this pH range.
(§4) The kinetic solubility of test compounds was examined by spiking compound in DMSO into either pH 6.5 phosphate buffer or 0.01 M HCl (approximately pH 2.0) with the final DMSO concentration being 1%. Samples were then analysed via nephelometry to determine a solubility range [23]. Effective log D values were measured using a chromatographic method employing a SUPELCOSIL LC-ABZ column using an octanol saturated mobile phase at pH 7.4 [23]. Theoretical physicochemical values were determined using the ACD logD suite of software programs. The molecular weight (MW) should ideally be ≤500 for good membrane permeability, while the hydrogen bond donor/acceptor properties should be respectively ≤5 and ≤10 respectively. The number of single bonds that are not in a ring or constrained system and are not bonded to a hydrogen atom (often referred to as the number of rotatable single bonds) should be ≤10 for acceptable oral bioavailability. The polar surface area (PSA) was calculated using a simplified 2-dimensional modeling approach, which has been validated against a more sophisticated 3-dimentional modeling strategy. For acceptable oral drug absorption and membrane permeability, the PSA value should be ≤120 Å^2. […] The 1-octanol/water partition coefficient were calculated for ionisable compounds. The values were calculated on the basis of log P and pKa values. Log D values are quoted with respect to a relevant pH, thereby providing a partition coefficient profile under physiologically relevant conditions.

[7] = tested on: L. donovani MHOM-ET-67/L82; assay: Antileishmanial testing; assay type: cell-based, Leishmania donovani; details: calculated versus cytotoxicity (HT-29)
Description: as §1, §3

[8] = Chromatographic eLogD technique; assay type: physicochemical; details: for chromatographic logD: SUPELCOSIL LC-ABZ column with octanol saturated mobile phase, pH 7.4
Description: The partition coefficients of the two compounds were measured via the previously described chromatographic technique. […] The LogD7.4 value for compound 2 of 0.35 is towards the lower end of the scale normally associated with “drug-like” molecules. […] For compound 2, parameters were also calculated for its terminal aldehyde tautomer, 2a, which is presumed to be the major form of the compound. The overall calculated parameters fall within the ranges associated with “drug-like” molecules.
as §4

[9] = P. falciparum NF54, results from STI, read-out: IC50 NF54
[10] = P. falciparum D6, mean of 2–3 determinations, results from WRAIR, read-out: IC50 D6
[11] = P. falciparum W2, mean of 2–3 determinations, results from WRAIR, read-out: IC50 W2
[12] = aqueous buffer, pH 6.5 phosphate buffer, read-out: Solubility pH 6.5
[13] = simulated gastric fluid, pH 2 (0.01 M HCl), read-out: Solubility pH 2

SMILES: C[C@H]1[C@H](OC(=O)CCC(=O)O)O[C@@H]2O[C@@]3(C)CC[C@H]4[C@H](C)CC[C@@H]1[C@@]24OO3 [Artesunate, reference compound]
- IC50 [1, 9]: 0.0019 µg/mL (≈ 0.00494 µM)

SMILES: CCN(CC)CCCC(C)Nc1ccnc2cc(Cl)ccc12 (centres unmarked) [Chloroquine, reference compound]
- IC50 ([2]; D6, read-out: IC50 D6): 0.003 µg/mL (≈ 0.00938 µM)
- IC50 ([1]; NF54, read-out: IC50 NF54): 0.0023 µg/mL (≈ 0.00719 µM)
- IC50 ([3]; W2, read-out: IC50 W2): 0.084 µg/mL (≈ 0.263 µM)

SMILES: C=CC(C)(O)C1C[C@H]2C(C)(C)C(=O)C=C[C@]2(C)OO1 (some centres unmarked) [Compound 6]
- IC50 [2, 10]: 0.483 µg/mL (≈ 1.81 µM)
- IC50 [1, 9]: > 1 µg/mL
- IC50 [3, 11]: 0.47 µg/mL (≈ 1.76 µM)

SMILES: C=CC(C)(O)C(=O)C[C@H]1C(C)(C)C(=O)C=C[C@]1(C)O (some centres unmarked) [Compound 4]
- IC50 [1, 9]: > 1 µg/mL

SMILES: CCCCCCCCCC(=O)OC/C=C(\C)C(=O)C[C@H]1C(C)(C)C(=O)C=C[C@]1(C)O [Compound 3]
- IC50 [2, 10]: 0.539 µg/mL (≈ 1.28 µM)
- IC50 [1, 9]: > 1 µg/mL
- IC50 [3, 11]: 0.46 µg/mL (≈ 1.09 µM)

SMILES: C/C(=C\CO)C(=O)C[C@H]1C(C)(C)C(=O)C=C[C@]1(C)O [Compound 2, sclerienone C]
- SI (selective index) T. b. rhod (T. b. rhodesiense): 8.3
- IC50 [4]: 0.511 µg/mL (≈ 1.92 µM)
- SI (selective index) T. cruzi (T. cruzi): 0.74
- IC50 [2, 10]: 0.267 µg/mL (≈ 1 µM)
- Metabolites detected [5]: None detected
- microsomal CLint at 2 µM [5]: 7.4 µL/min/mg
- Microsome predicted E H (hepatic extraction ratio) [5]: 0.29
- CLint scaled at 2 µM [5]: 8.6 mL/min/kg
- solubility [6, 12]: > 100 µg/mL
- solubility [6, 13]: 50 to 100 µg/mL (≈ 188 to 375 µM)
- IC50 [1, 9]: 0.439 µg/mL (≈ 1.65 µM)
- SI (selective index) L. donovani [7]: 5.9
- elogD pH 7.4 [8]: 0.35
- chromatographic logD [8]: 0.35
- IC50 [3, 11]: 0.354 µg/mL (≈ 1.33 µM)

SMILES: C=C[C@H]1C[N@@]2CC[C@H]1C[C@H]2[C@H](O)c1ccnc2ccc(OC)cc12 [Quinine, reference compound]
- IC50 [2, 10]: 0.027 µg/mL (≈ 0.0832 µM)
- IC50 [3, 11]: 0.097 µg/mL (≈ 0.299 µM)

SMILES: C=CC(C)(O)C(=O)C[C@H]1C(C)(C)C(=O)C=C[C@]1(C)O (some centres unmarked) [Compound 5]
- IC50 NF54 ([1]; P. falciparum NF54, results from STI): >1000 ng/mL

SMILES: C/C(=C\CO)[C@H]1C[C@H]2C(C)(C)C(=O)C=C[C@]2(C)OO1 [Compound 1, okundoperoxide]
- SI (selective index) T. b. rhod (T. b. rhodesiense): 3.4
- IC50 [4]: 0.661 µg/mL (≈ 2.48 µM)
- SI (selective index) T. cruzi (T. cruzi): 1
- IC50 [2, 10]: 0.195 µg/mL (≈ 0.732 µM)
- Metabolites detected [5]: None detected
- microsomal CLint at 2 µM [5]: 12.3 µL/min/mg
- Microsome predicted E H (hepatic extraction ratio) [5]: 0.41
- CLint scaled at 2 µM [5]: 14.3 mL/min/kg
- solubility [6, 12]: > 100 µg/mL
- solubility [6, 13]: > 100 µg/mL
- IC50 [1, 9]: 0.304 µg/mL (≈ 1.14 µM)
- SI (selective index) L. donovani [7]: 11.4
- elogD pH 7.4 [8]: 1.71
- chromatographic logD [8]: 1.71
- IC50 [3, 11]: 0.268 µg/mL (≈ 1.01 µM)

From paper PMC5481270, “Antiparasitic Sesquiterpenes from the Cameroonian Spice Scleria striatinux and Preliminary In Vitro and In Silico DMPK Assessment” (Natural Products and Bioprospecting, 2017)
